The values that follow come from ChEMBL document CHEMBL1141665, “Quantitative structure-activity relationship studies of a series of non-benzodiazepine structural ligands binding to benzodiazepine receptor” (Eur J Med Chem, 2008).

As a reminder, the pIC50 is the IC50 on a negative log10 scale, so that one unit is a factor of ten. Lower therefore signals a large IC50.

This assay can be described thus: Displacement of [3H]diazepam from GABAA/BzR in rat brain membrane. The class given is cell membranes. In general terms: In a radioligand displacement assay an active substance lowers the binding of a labelled ligand.

The compound `Cc1cc(-n2nc3c4ccccc4n(C)cc-3c2=O)cs1` came in with a pIC50 of 6.52.

Regarding `Clc1ccc2c(c1)[nH]c1c2ncc2[nH]c3ccccc3c21`, the negative logarithm of the IC50 (pIC50) was found to be 8.

In the case of `c1ccc2c(c1)[nH]c1cnccc12` [NORHARMANE], the pIC50 was 5.79.

`O=[N+]([O-])c1ccc2[nH]c3c[nH]c4c5ccc(Cl)cc5nc-4c3c2c1` came in with a pIC50 of 6.9.

As to `Cc1ccc2[nH]cc3c(=O)n(-c4csc(C)c4)nc-3c2c1`, the pIC50 was 9.27.

On to `Cc1cc(-n2[nH]c3c(cnc4ccccc43)c2=O)cs1`, for which the pIC50 stood at 9.35.

Take `Clc1cc2c(cn1)[nH]c1ccccc12`: the pIC50 came out at 7.35.

`Brc1ccc2[nH]c3c4c5ccccc5nc-4c[nH]c3c2c1` displayed a pIC50 of 6.12.

With `O=C1C2C=Nc3ccccc3C2=NN1c1ccc(Cl)cc1` (centres undefined) [CGS-9896], the pIC50 was 8.94.

`Oc1cc2c3ccccc3nc-2c[nH]1` registered a negative-log IC50 (pIC50) of 5.4.

With `Brc1ccc2c(c1)[nH]c1c3c4ccccc4nc-3c[nH]c12`, the pIC50 is reported as 7.72.

`Cc1ccc2c(c1)ncc1c(=O)n(-c3csc(C)c3)[nH]c12`: the pIC50 was 8.87.

`Fc1cccc2c1[nH]c1c3c4ccccc4nc-3c[nH]c12` displayed a negative-log IC50 (pIC50) of 7.92.

`Cn1c2ccccc2c2c1ccc1c3ccccc3n(C)c12` registered a pIC50 of 5.72.

For the compound `Oc1ccc2[nH]c3c4c5ccccc5nc-4c[nH]c3c2c1`, the pIC50 came to 6.94.

On to `Oc1ccc2c(c1)[nH]c1c3c4ccccc4nc-3c[nH]c12`, for which the pIC50 stood at 8.22.

For the compound `Cc1cc(-n2[nH]c3c(cnc4cc(F)ccc43)c2=O)cs1`, the pIC50 is listed as 9.05.

In the case of `CCc1nc2c3ccccc3[nH]c2c2c1[nH]c1ccccc12`, the pIC50 was 6.6.

In the case of `Fc1ccc2c(c1)[nH]c1c3c4ccccc4nc-3c[nH]c12`, the pIC50 is 8.15.

`COc1cccc2[nH]c3c4c5ccccc5nc-4c[nH]c3c12` returned a pIC50 of 6.6.

As for `CCOC(=O)c1cc2c(cn1)sc1ccccc12`, the pIC50 amounted to 5.77.

Regarding `c1ccc(Oc2ccc3[nH]c4c(ncc5[nH]c6ccccc6c54)c3c2)cc1`, the pIC50 is 5.8.

As to `Clc1ccc2[nH]c3c[nH]c4c5cccc(Cl)c5nc-4c3c2c1`, the pIC50 was found to be 6.51.

`O=[N+]([O-])c1cc2c3ccccc3nc-2c[nH]1` showed a pIC50 of 6.9.

Turning to `O=[N+]([O-])c1ccc2[nH]c3c[nH]c4c5ccccc5nc-4c3c2c1`, the pIC50 came out at 8.4.

`c1ccc2c(c1)[nH]c1c2ncc2[nH]c3ccccc3c21` gave a pIC50 of 8.4.

The compound `O=C1C2C=Nc3ccccc3C2=NN1c1ccccc1` (centres undefined) [CGS-8216] had a pIC50 of 9.51.

`Nc1ccc2[nH]c3c[nH]c4c5ccc(Cl)cc5nc-4c3c2c1` had a pIC50 of 7.01.

`Cc1ccc2c(c1)[nH]c1c3c4ccccc4nc-3c[nH]c12` registered a pIC50 of 8.1.

In the case of `COc1ccc2c(c1)[nH]c1c2ncc2[nH]c3ccccc3c21`, the pIC50 is 8.1.

`Brc1ccc2[nH]c3cnc4c5ccccc5[nH]c4c3c2c1`: the pIC50 is 8.22.

As to `COc1cc2c(cn1)[nH]c1ccccc12`, the pIC50 is 6.91.

The compound `Cn1c2ccccc2c2[nH]cc3nc4ccccc4c-3c21` yielded a pIC50 of 6.8.

`Clc1cccc2c1[nH]c1c3c4ccccc4nc-3c[nH]c12` came in with a pIC50 of 7.1.

In turn, `Fc1ccc2[nH]c3c4c5ccccc5nc-4c[nH]c3c2c1` showed a pIC50 of 8.22.

Compound `Cc1cccc2c1[nH]c1c3c4ccccc4nc-3c[nH]c12` returned a pIC50 of 7.08.

Turning to `COC(=O)c1cc2c(cn1)[nH]c1ccccc12` [BETA-CCM], the pIC50 was found to be 8.3.

Compound `Clc1cccc2[nH]c3c4c5ccccc5nc-4c[nH]c3c12` yielded a pIC50 of 6.15.

`Cc1cc(-n2nc3c4cc(F)ccc4[nH]cc-3c2=O)cs1` returned a pIC50 of 9.29.

Regarding `CCOC(=O)c1cc2c(cn1)Cc1ccccc1-2`, the pIC50 was found to be 6.17.

`Cc1cc(-n2nc3c4cc(Cl)ccc4[nH]cc-3c2=O)cs1`: the pIC50 was 9.06.

`Cn1c2ccccc2c2c3[nH]c4ccccc4c3ncc21` had a pIC50 of 5.94.

Compound `COc1ccc2[nH]c3c4c5ccccc5nc-4c[nH]c3c2c1` registered a pIC50 of 6.05.

Turning to `Cc1ccc2[nH]c3c4c5ccccc5nc-4c[nH]c3c2c1`, the pIC50 stood at 6.65.

For `Clc1ccc2[nH]c3c4c5ccccc5nc-4c[nH]c3c2c1`, the pIC50 amounted to 5.67.

Regarding `Nc1ccc2[nH]c3c[nH]c4c5ccccc5nc-4c3c2c1`, the negative logarithm of the IC50 (pIC50) worked out at 7.36.

`O=c1c2cnc3ccccc3c2[nH]n1-c1ccsc1` displayed a pIC50 of 8.99.

With `Cc1nccc2c1[nH]c1ccccc12` [HARMAN], the pIC50 stood at 4.91.

For `CCOC(=O)c1cc2c(cn1)oc1ccccc12`, the pIC50 is recorded as 5.04.

In turn, `O=c1c2cnc3ccccc3c2[nH]n1-c1csc(Cl)c1` had a pIC50 of 8.99.

In turn, `Cc1cc(-n2[nH]c3c(cnc4cc(Cl)ccc43)c2=O)cs1` showed a pIC50 of 8.96. This pIC50 and that of the compound before are within 0.2 log units of each other.

The compound `O=[N+]([O-])c1ccc2[nH]c3c[nH]c4c5cc(Cl)ccc5nc-4c3c2c1` gave a pIC50 of 5.92.

For the compound `Brc1cccc2c1[nH]c1c3c4ccccc4nc-3c[nH]c12`, the negative logarithm of the IC50 (pIC50) was found to be 7.55.

Regarding `Oc1cccc2[nH]c3c4c5ccccc5nc-4c[nH]c3c12`, the pIC50 amounted to 6.24.
